Legend:
guinea pig ileon = assay: Relaxant activity on the guinea pig ileon (isolated organ bath); conditions: isolated terminal guinea pig ileon, oxygenated Tyrode liquid, 37° C; for minimal effective concentration: Cavia porcellus, read-out: Relaxant Activity (concentration which caused a suppression of spontaneous contractions and relaxed the organ)
Description: The relaxant effect of the test compounds was determined on guinea pig ileon using the following procedure. The terminal portion of the guinea pig ileon was removed and washed with Tyrode solution at 37° C. It was then suspended in a bath of oxygenated Tyrode liquid at 37° C and the contractions were registered on a collector attached to a Sanborn polygraph. The test product was added to bath of the organ with a low volume and the concentration which caused a suppression of spontaneous contractions and relaxed the organ causing a lowering of the line of the base was considered to be relaxant.

mice = assay: Analgesic activity - stretching provoked by acetic acid (Koster et al); format: in vivo; conditions: Mus musculus, 0.25 h, oral, one half hour before intraperitoneal 1% acetic acid 100 mg/kg, 15 minute observation, fasted, read-out: DA50 (dose which reduced the number of stretchings by 50%)
Description: The test procedure was that of Koster et al wherein an intraperitoneal injection of aqueous acetic acid in a concentration of 1% at a dose of 100 mg/kg caused in mice repeated movements of stretching and twisting which can persist for more than 6 hours. Analgesics prevent or lessen the syndrome. The test products were orally administered one half hour before the acetic acid injection and the mice were fasted from the day before the test. The stretching were counted for each mouse during a 15 minute observation period beginning right after the acetic acid injection and the analgesic effect was expressed as a percentage of protection with respect to the controls.

[1] = system: prostaglandin synthetases of lungs of guinea pigs; assay: Inhibitory effect against biosynthesis of prostaglandins starting with arachidonic acid by prostaglandin synthetases of lungs of guinea pigs (Vane); format: biochemical; conditions: guinea pig lung homogenate supernatant, 10 μg arachidonic acid, 30 minutes at 37° C; prostaglandin-like activity read on isolated rat colon; read-out: CI50 (inhibited by 50% the biosynthesis activity)
From the text: C. INHIBITORY EFFECT AGAINST BIOSYNTHESIS OF PROSTAGLANDINS SYNTHESIS OF PROSTAGLANDINS STARTING WITH ARACHIDONIC ACID BY MEANS OF PROSTAGLANDIN SYNTHETASES OF LUNGS OF GUINEA PIGS.
This test used the procedure of Vane [Nature New Biology, Vol. 231 (1971), p. 232-235] wherein the lungs of adult guinea pigs (2 per series) were rapidly removed and washed with a modified, iced Bucher medium. The lung tissue was homogenized in a Turrax grinder in a minute and the homogenate was centrifuged for 20 minutes to 1200 g. The supernatant was used as a preparation of prostaglandin synthetases.
A solution of arachidonic acid in ethanol at a concentration of 10 mg/ml was diluted with a 0.2% aqueous sodium carbonate solution and was then diluted further with a modified Bucher medium to obtain a final acid concentration of 200 μg/ml. The biosynthesis inhibitors are put into aqueous or dilute alcohol (20% maximum) solutions. Tubes were prepared containing 1 ml of the prostaglandin synthetases preparation, 10 μg of arachidonic acid and 0.1 ml of inhibiting solution or, for the controls, an equal volume of water or dilute alcohol. The tubes were incubated with stirring for 30 minutes at 37° C in aerobic conditions and each test consisted of a tube containing a biosynthesis inhibitor, one biosynthesis control with incubated arachidonic acid and one control with non-incubated arachidonic acid. The latter control permitted a evaluation of amount of natural prostaglandins present in the ground lung and the results obtained with this control must therefore be taken away from the control of biosynthesis and from all the tests. The reactions were stopped by immension in boiling water until the proteins are coagulated. The dosage of "prostaglandin like" activity was effected biologically on the isolated rat colon suspended in Krebs liquid, mixed to augment the specificity, with antagonists to other contracturant mediators susceptible to interfere. The antagonists were mepyramine, scopolamine, methysergide, phenoxybenzamine and propanolol.
A comparison of the results registered in the presence or absence of a test product permitted the calculation of the percentage of biosynthesis inhibition. The CI50 dose which inhibited by 50% the biosynthesis activity was graphically obtained by straight line representing the percent of inhibition with reference to the incubated controls against the log of the concentration in μg/ml and the results are reported in Table II.

Row | SMILES | IC50 [1] [µM] | Relaxant Activity (concentration which caused a suppression of spontaneous contractions and relaxed the organ) (guinea pig ileon) [µg/mL] | ED50 (mice) [mg/kg] | minimal effective concentration (guinea pig ileon) [µg/mL]
1 | CCCCC[C@H](O)/C=C/[C@H]1CC[C@H](O)[C@H]1CO (racemic) [Product A, (1RS, 2SR, 5RS, 3'SR) (1'E) 2,3'-dihydroxy-5-(1'-octenyl)-cyclopentane methonol] |  | 20 |  | 
2 | CCCCC[C@@H](/C=C/[C@H]1CC[C@H](O)[C@@H]1C(=O)OCC)OC(=O)c1ccccc1C(=O)O (relative stereo) [Product B, ethyl (1RS, 2SR, 5RS, 3'SR) (1'E) 2-hydroxy-5-(3'-α-hemiphthaloyloxy-1'-octenyl)-cyclopentanecarboxylate] |  |  | ~100 | 
3 | CCCCCCCCCC(=O)O[C@H](/C=C/[C@H]1CC[C@H](O)[C@@H]1C(=O)OCC)CCCCC (relative stereo) [Product C, ethyl (1RS, 2SR, 5RS, 3'SR) (1'E) 2-hydroxy-5-(3'-decanoyloxy-1'-octenyl)-cyclopentanecarboxylate] | 137 |  |  | 20
4 | CCCCCCCCCC(=O)O[C@H](/C=C/[C@H]1CC[C@@H](O)[C@@H]1C(=O)OCC)CCCCC (relative stereo) [Product G, ethyl (1RS, 2RS, 5RS, 3'SR) (1'E) 2-hydroxy-5-(3'-decanoyloxy-1'-octenyl)-cyclopentanecarboxylate] | 113 |  |  | 

Now from value to molecule, other results behind:

Row | IC50 [1] [µM] | SMILES | Relaxant Activity (concentration which caused a suppression of spontaneous contractions and relaxed the organ) (guinea pig ileon) [µg/mL] | ED50 (mice) [mg/kg] | minimal effective concentration (guinea pig ileon) [µg/mL]
5 | 436 | CCCCC[C@@H](/C=C/[C@H]1CC[C@H](O)[C@@H]1C(=O)OCC)OC (relative stereo) [Product D, ethyl (1RS, 2SR, 5RS, 3'SR) (1'E) 2-hydroxy-5-(3'methoxy-1'-octenyl)-cyclopentanecarboxylate] |  |  | 5
6 | 671 | CCCCC[C@@H](/C=C/[C@H]1CC[C@@H](O)[C@@H]1C(=O)OCC)OC (relative stereo) [Product E, ethyl (1RS, 2RS, 5RS, 3'SR) (1'E) 2-hydroxy-5(3'-methoxy-1'-octenyl)-cyclopentanecarboxylate] |  |  | 10
7 | 123 | CCCCC[C@@H](/C=C/[C@H]1CC[C@H](O)[C@@H]1C(=O)OCC)OC(=O)CCC(=O)O (relative stereo) [Product F, ethyl (1RS, 2SR, 5RS, 3'SR) (1'E) 2-hydroxy-5-(3'-hemisuccinyloxy-1'-octenyl)-cyclopentanecarboxylate] |  |  | 
